Target: T1, human A3R (Homo sapiens, UniProt P0DMS8)
T1 sequence (P0DMS8 1-318): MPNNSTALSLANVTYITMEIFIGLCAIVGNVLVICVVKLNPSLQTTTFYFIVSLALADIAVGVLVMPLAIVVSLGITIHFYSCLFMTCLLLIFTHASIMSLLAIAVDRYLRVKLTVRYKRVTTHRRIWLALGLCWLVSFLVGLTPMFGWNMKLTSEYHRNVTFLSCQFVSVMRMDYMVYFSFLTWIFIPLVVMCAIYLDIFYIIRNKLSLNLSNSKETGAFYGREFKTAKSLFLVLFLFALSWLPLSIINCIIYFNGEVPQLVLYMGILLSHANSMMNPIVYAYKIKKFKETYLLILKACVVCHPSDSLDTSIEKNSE
Assay: TGFα shedding assay, human A3R WT
Assay type: cell-based
Settings: for activation of A3R (in words): human A3R

Compound: 1-methyladenosine [m^1A]
- potency towards all four adenosine receptors (in words) (A1R, A2AR, A2BR, A3R): weak and non-selective potency
- activation of A3R (in words): can also induce A3R activation

Compound: CC(C)=CCNc1ncnc2c1ncn2[C@@H]1O[C@H](CO)[C@@H](O)[C@H]1O [i6A, N6-Isopentenyladenosine]
- calculated intrinsic activity (RAi) relative to adenosine (A3R): 59%
- activation of A3R (in words): selectively activates A3R

Compound: CN(C)c1ncnc2c1ncn2[C@@H]1O[C@H](CO)[C@@H](O)[C@H]1O [m6,6A, N6,N6-Dimethyladenosine]
- calculated intrinsic activity (RAi) relative to adenosine (A3R): 7%
- activation of A3R (in words): very weak activation of A3R

Compound: C[C@@H](O)[C@H](NC(=O)Nc1ncnc2c1ncn2[C@@H]1O[C@H](CO)[C@@H](O)[C@H]1O)C(=O)O [t6A, N6-Threonylcarbamoyladenosine]
- activation of A3R (in words): did not show any potency on A3R
